Assay results: PubChem BioAssay (NCI)
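Dose response: 5 concentrations. Exposure: 48 h. Format: 96-well plates. Endpoint: linear interpolation; highest concentration if not reached. GI50 marks 50% less growth. TGI: total growth inhibition.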

Legend:
Assay in all cases: DTP human tumour cell line panel, 48 h
SN12C renal = tested on: SN12C renal
SF-539 CNS = tested on: SF-539 CNS
PC-3 prostate = tested on: PC-3 prostate
OVCAR-8 ovarian = tested on: OVCAR-8 ovarian
NCI-H226 lung = tested on: NCI-H226 lung
TK-10 renal = tested on: TK-10 renal
COLO 205 colon = tested on: COLO 205 colon
U251 CNS = tested on: U251 CNS
CCRF-CEM leukemia = tested on: CCRF-CEM leukemia
UO-31 renal = tested on: UO-31 renal

Row | Compound | TGI (SN12C renal) [µM] | TGI (SF-539 CNS) [µM] | TGI (PC-3 prostate) [µM] | TGI (OVCAR-8 ovarian) [µM] | TGI (NCI-H226 lung) [µM] | TGI (TK-10 renal) [µM] | TGI (COLO 205 colon) [µM] | TGI (U251 CNS) [µM] | TGI (CCRF-CEM leukemia) [µM] | TGI (UO-31 renal) [µM] | GI50 (SN12C renal) [µM] | GI50 (SF-539 CNS) [µM] | GI50 (PC-3 prostate) [µM] | GI50 (OVCAR-8 ovarian) [µM] | GI50 (NCI-H226 lung) [µM] | GI50 (TK-10 renal) [µM] | GI50 (COLO 205 colon) [µM] | GI50 (U251 CNS) [µM] | GI50 (CCRF-CEM leukemia) [µM] | GI50 (UO-31 renal) [µM]
1 | ON(Cc1ccccc1)C(=S)c1ccccc1 | > 100 | 44.4 | > 100 | > 69.8 | 93 | > 100 | > 93.8 | 61 | > 27 | 37.9 |  |  |  |  |  |  |  |  |  | 
2 | C=C1C(=O)O[C@H]2[C@H]1CC/C(COC(=O)CCSCCC(=O)OC/C1=C/CC[C@@]3(C)O[C@H]3[C@H]3OC(=O)C(=C)[C@@H]3CC1)=C\CC[C@@]1(C)O[C@@H]21 | 3.62 | 2.59 | 4.8 | 3.96 | 8.96 | 2.98 | 1.97 | 3.45 | 1.25 | 2.27 | 1.35 | 1.2 | 1.82 | 1.57 | 3 | 1.5 | 0.558 | 1.39 | 0.314 | 1.07
3 | CCOC(=O)c1c(C)n(Cc2ccccc2)c2c1cc(O)c1[nH]c(Cc3ccccc3)nc12 | 39.8 | > 100 | > 100 | > 100 | > 75.9 | 54.5 | > 54.8 | 33 | > 100 | > 51.4 | 10.5 | 17.1 | 7.88 | 29.6 | 12.1 | 1.5 | 24.7 | 7.46 | > 21.4 | > 32.9
4 | COc1cccc(-c2nn(-c3ccccc3)cc2-c2ccnc(NCCNC(=O)Nc3cccc(C(F)(F)F)c3)c2)c1 | 4.06 | 3.32 | 5.24 | 9.77 | 5.32 | 11.9 | 3.78 | 5.26 | 7 | 4.15 | 1.95 | 1.75 | 2.02 | 3.3 | 2.07 | 2.74 | 1.88 | 2.28 | 2.46 | 1.6
5 | CN(Cc1cccc(F)c1)c1ccc(CO)c(Cl)c1 | > 100 | > 100 | 98.8 | > 100 | 0.275 | 0.851 | 19.3 | 30.6 | > 100 | 75.5 | 22.3 | 33.2 | 23.7 | 20.3 | 0.123 | 0.186 | 5.46 | 4.57 | 31.1 | 10.3
